Data from publication PMC8022858, “Discovery of bone morphogenetic protein 7-derived peptide sequences that attenuate the human osteoarthritic chondrocyte phenotype” (Molecular Therapy. Methods & Clinical Development, 2021).

Tested on: human OA cartilage explants
Experiment: PGE2 levels in culture supernatant of cartilage explants
Type: cell-based
Settings: n = 5 donors, 24 h, relative to control (Figure 6D)
Experimental: Figure 6 Peptide p[63−82] activity on OA knee joint tissues Human OA knee joint tissues were cultured for 24 h in the presence of BMP7, peptide p[63−82], or the scrambled version of peptide p[63−82] and compared to control conditions. (A) Cartilage tissues (n = 7 individual donors) were exposed to shown conditions and analyzed for COL2A1, COL10A1, and COX-2 mRNA expression by quantitative real-time PCR (normalized for 28S rRNA expression and relative to control conditions). (B) GAG release in medium from cartilage tissues (n = 5 individual donors) was determined, and data were calculated relative to the control condition. (C) PGE2 levels in culture supernatant from synovium (n = 5 donors). (D) PGE2 levels in culture supernatant from cartilage tissues from (B) (n = 5 donors). (E) PGE2 levels in culture supernatant from IPFP (n = 5 donors). (F) PGE2 levels in culture supernatant from the meniscus. Synovium, IPFP, and meniscus tissues were from the same 5 donors as the cartilage tissues in (B) and (C). PGE2 levels in conditions were calculated relative to controls for each donor. In graphs, error bars represent mean ± SEM; data are presented relative to the control condition for each time point. Statistical differences (unpaired two-tailed Student’s t test) were calculated to control condition: ∗p < 0.05, ∗∗p < 0.01, and ∗∗∗p < 0.001. […]

Row | Substance | PGE2 levels from cartilage explants
1 | BMP7: full-length recombinant bone morphogenetic protein 7 (R&D Systems), used at 1 nM | reduced
2 | H-AAYYSEGESAFPLNSYMNAT-OH [p[63−82]] | reduced
